Results taken from ChEMBL document CHEMBL4229451, “Recent advances in peptidomimetics antagonists targeting estrogen receptor α-coactivator interaction in cancer therapy” (Bioorg Med Chem Lett, 2018).
Starred links: 1 amine or outer side, 2 acyl side, 3 side chain; linkers in the order of their positions; H or OH if unused. Positions of bridges follow the written chain, without caps; N, C: chain ends. Non-standard residues stand in square brackets, D forms with d. Residues, ends and D or L forms follow the SMILES beside them. αMeNle(4R-Me,6-ylidene) = C[C@H](CC=[*:3])C[C@](C)(N[*:1])C(=O)[*:2]; S5 = C=CCCC[C@](C)(N)C(=O)O

What was measured:
[1] = target: T1, Estrogen receptor (Homo sapiens, UniProt P03372); assay: Antagonist activity at full length recombinant human ERalpha expressed in baculovirus expression system assessed as inhibition of estradiol-induced Euphorium-labelled LTERHKILHRLLQEGSPSD peptide recruitment after 1.5 hrs by time-resolved fluorescence assay
T1 sequence (P03372 whole entry): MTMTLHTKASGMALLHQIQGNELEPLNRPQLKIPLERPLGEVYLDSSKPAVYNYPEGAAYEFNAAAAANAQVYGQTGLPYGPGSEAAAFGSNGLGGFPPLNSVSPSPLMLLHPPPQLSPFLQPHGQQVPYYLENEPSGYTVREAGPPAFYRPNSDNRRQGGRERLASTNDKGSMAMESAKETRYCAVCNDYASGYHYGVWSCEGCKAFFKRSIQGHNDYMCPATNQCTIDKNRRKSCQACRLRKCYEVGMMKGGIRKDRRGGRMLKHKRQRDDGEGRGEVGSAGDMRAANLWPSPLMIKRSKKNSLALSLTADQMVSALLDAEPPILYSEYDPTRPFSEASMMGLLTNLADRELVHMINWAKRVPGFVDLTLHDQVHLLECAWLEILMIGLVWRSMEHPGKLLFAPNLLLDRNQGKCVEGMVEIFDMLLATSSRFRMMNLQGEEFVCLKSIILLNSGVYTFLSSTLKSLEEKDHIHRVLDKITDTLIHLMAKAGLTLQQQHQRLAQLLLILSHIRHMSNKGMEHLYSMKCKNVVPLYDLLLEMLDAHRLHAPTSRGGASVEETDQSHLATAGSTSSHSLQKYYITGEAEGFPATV

[2] = target: Estrogen receptor beta (Homo sapiens, UniProt Q92731, C334S/C369S/C481S); assay: (§1) Binding affinity to recombinant human ERbeta LBD (259 to 498 residues) C334S/C369S/C481S triple mutant expressed in Escherichia coli BL21(DE3) by surface plasmon resonance method
[3] = target: T1, Estrogen receptor; assay: (§2) Binding affinity to recombinant human ERalpha LBD (301 to 553 residues) expressed in Escherichia coli BL21(DE3) by surface plasmon resonance method
[4] = target: T1, Estrogen receptor; assay: Binding affinity to recombinant human ERalpha LBD (301 to 553 residues) expressed in Escherichia coli BL21(DE3) using FITC-labelled compound after 1 hr by fluorescence polarization method
[5] = system: Estrogen receptor beta (Homo sapiens), Q92731 [C334S,C369S,C481S]; assay: as §1
[6] = target: T2, Estrogen receptor (Homo sapiens) (UniProt P03372); assay: as §2
T2 sequence (whole entry): T1 sequence (P03372 whole entry)

[7] = target: T1, Estrogen receptor; assay: Displacement of 5-iodoacetamidofluorescein-labelled SRC3 from C417-biotin labelled ERalpha (unknown origin) (304 to 554 residues) after 45 mins by TR-FRET assay

Chain of Estrogen receptor beta (Q92731 whole entry C334S/C369S/C481S, the tested form may be a part): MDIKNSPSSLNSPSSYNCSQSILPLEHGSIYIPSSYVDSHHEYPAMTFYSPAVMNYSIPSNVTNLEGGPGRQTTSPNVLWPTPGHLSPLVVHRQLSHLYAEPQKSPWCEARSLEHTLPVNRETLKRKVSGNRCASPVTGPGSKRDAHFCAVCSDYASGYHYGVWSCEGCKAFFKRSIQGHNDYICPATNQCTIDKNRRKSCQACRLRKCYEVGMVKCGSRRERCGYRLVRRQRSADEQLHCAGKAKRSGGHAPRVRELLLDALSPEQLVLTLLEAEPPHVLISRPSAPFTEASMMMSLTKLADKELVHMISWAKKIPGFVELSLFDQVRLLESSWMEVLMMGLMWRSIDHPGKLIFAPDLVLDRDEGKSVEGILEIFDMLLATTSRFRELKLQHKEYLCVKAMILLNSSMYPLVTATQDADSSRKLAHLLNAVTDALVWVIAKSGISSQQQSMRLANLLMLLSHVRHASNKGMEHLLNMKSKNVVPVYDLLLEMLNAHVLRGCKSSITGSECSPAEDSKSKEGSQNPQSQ
Chain of Estrogen receptor beta (Homo sapiens), Q92731 [C334S,C369S,C481S] (Q92731 whole entry C334S/C369S/C481S): as the sequence (Q92731 whole entry C334S/C369S/C481S, the tested form may be a part) above

SMILES: CC[C@H](C)[C@@H]1NC(=O)[C@H](NC(=O)[C@@H](N)CCCCN)CSSC[C@H](C(=O)N[C@@H](CCCNC(=N)N)C(=O)N[C@@H](CC(C)C)C(=O)N[C@@H](CC(C)C)C(=O)N[C@@H](CCC(N)=O)C(N)=O)NC(=O)[C@H](CC(C)C)NC1=O (H-K[dC]IL[dC]RLLQ-NH2; disulfide 2-5)
- Ki [1]: 0.025 µM

SMILES: CC[C@H](C)[C@H](NC(=O)[C@H](CCCCN)NC(=O)[C@]1(C)CCC/C=C\CCC[C@](C)(NC(C)=O)C(=O)N[C@@H](CCCCN)C(=O)N[C@@H](CCC(=O)O)C(=O)N[C@@H](CCCCN)C(=O)N1)C(=O)N[C@@H](CC(C)C)C(=O)N[C@@H](Cc1cnc[nH]1)C(=O)N[C@@H](CCC(N)=O)C(=O)N[C@@H](CC(C)C)C(=O)N[C@@H](CC(C)C)C(=O)N[C@@H](CCC(N)=O)C(=O)N[C@@H](CC(=O)O)C(=O)N[C@@H](CO)C(N)=O (Ac-[S5]KEK[S5]KILHQLLQDS-NH2; staple (Z) 1-5)
- Kd [2]: 8.3 µM
- Kd [3]: 8 µM

SMILES: CC[C@H](C)[C@@H]1NC(=O)[C@H](NC(=O)[C@@H](N)CCCNC(=N)N)CSSC[C@H](C(=O)N[C@@H](CCCNC(=N)N)C(=O)N[C@@H](CC(C)C)C(=O)N[C@@H](CC(C)C)C(=O)N[C@@H](CCC(N)=O)C(N)=O)NC(=O)[C@H](CC(C)C)NC1=O
- Ki [1]: 0.011 µM

SMILES: CC[C@H](C)[C@@H]1NC(=O)C[C@H](NC(=O)[C@@H](N)CCCNC(=N)N)C(=O)NC[C@@H](C(=O)N[C@@H](CCCNC(=N)N)C(=O)N[C@@H](CC(C)C)C(=O)N[C@@H](CC(C)C)C(=O)N[C@@H](CCC(N)=O)C(N)=O)NC(=O)[C@H](CC(C)C)NC1=O
- Kd [4]: 0.085 µM

SMILES: CC[C@H](C)[C@H](NC(=O)[C@H](CCCCN)NC(=O)[C@H](Cc1cnc[nH]1)NC(=O)[C@H](CCCCN)NC(=O)[C@H](CCC(=O)O)NC(C)=O)C(=O)N[C@@H](CC(C)C)C(=O)N[C@@]1(C)CCC/C=C\CCC[C@@](C)(C(=O)N[C@@H](CC(=O)O)C(=O)N[C@@H](CO)C(N)=O)NC(=O)[C@H](CC(C)C)NC(=O)[C@H](CC(C)C)NC(=O)[C@H](CCCNC(=N)N)NC1=O (Ac-EKHKIL[S5]RLL[S5]DS-NH2; staple (Z) 7-11)
- Kdiss [5]: 0.155 s⁻¹
- Kd [2]: 0.155 µM
- Kdiss [6]: 0.129 s⁻¹
- Kd [3]: 0.075 µM

SMILES: CC[C@H](C)[C@H](NC(=O)[C@H](Cc1ccc(O)cc1)NC(=O)[C@@H]1C[C@H](O)CN1C(=O)[C@H](C)NC(=O)[C@H](CC(C)C)NC(=O)CCCCCNC(=O)[C@H](CCC(N)=O)NC(=O)[C@H](CC(C)C)NC(=O)[C@H](CC(C)C)NC(=O)[C@H](CCCNC(=N)N)NC(=O)[C@@H]1CNC(=O)[C@@H](NC(=O)[C@@H](N)CCCNC(=N)N)CC(=O)N[C@@H]([C@@H](C)CC)C(=O)N[C@@H](CC(C)C)C(=O)N1)C(N)=O
- Kd [4]: 0.03 µM

SMILES: CC[C@H](C)[C@@H]1NC(=O)[C@@](C)(NC(=O)[C@H](Cc2cnc[nH]2)NC(C)=O)CCC/C=C\CCC[C@@](C)(C(=O)N[C@@H](CC(C)C)C(=O)N[C@@H](CC(C)C)C(=O)N[C@@H](CCC(N)=O)C(=O)N[C@@H](CC(=O)O)C(=O)N[C@@H](CO)C(N)=O)NC(=O)[C@H](Cc2cnc[nH]2)NC(=O)[C@H](CC(C)C)NC1=O (Ac-H[S5]ILH[S5]LLQDS-NH2; staple (Z) 2-6)
- Kdiss [5]: 0.509 s⁻¹
- Kd [2]: 1.99 µM
- Kdiss [6]: 0.256 s⁻¹
- Kd [3]: 0.674 µM

SMILES: CC[C@H](C)[C@H](NC(=O)[C@H](CCCCN)NC(=O)[C@H](Cc1cnc[nH]1)NC(C)=O)C(=O)N[C@@H](CC(C)C)C(=O)N[C@@H](Cc1cnc[nH]1)C(=O)N[C@@H](CCC(N)=O)C(=O)N[C@@H](CC(C)C)C(=O)N[C@@H](CC(C)C)C(=O)N[C@@H](CCC(N)=O)C(=O)N[C@@]1(C)CCC/C=C\CCC[C@@](C)(C(=O)N[C@H](C(N)=O)C(C)C)NC(=O)[C@H](CO)NC(=O)[C@H](CO)NC(=O)[C@H](CO)NC1=O (Ac-HKILHQLLQ[S5]SSS[S5]V-NH2; staple (Z) 10-14)
- Kd [2]: 2.8 µM
- Kd [3]: 4 µM

SMILES: CC(=O)N[C@@H](Cc1cnc[nH]1)C(=O)N[C@@H](CCCCN)C(=O)N[C@@]1(C)CCC/C=C\C[C@@H](C)C[C@@](C)(C(=O)N[C@@H](CC(C)C)C(=O)N[C@@H](CCC(N)=O)C(=O)N[C@@H](CC(=O)O)C(=O)N[C@@H](CO)C(N)=O)NC(=O)[C@H](CCCNC(=N)N)NC(=O)[C@H](Cc2cnc[nH]2)NC(=O)[C@H](CC(C)C)NC1=O (Ac-HK[S5]LHR[αMeNle(4R-Me,6-ylidene)]LQDS-NH2; staple (Z) 3-7)
- IC50 [7]: 1.8 µM
